pIC50: −log10 of the molar value. Where a name gives a salt, the structure may show the parent alone. Bounds are passed on as bounds.

17 molecules from BindingDB's records for doi:10.1016/s0968-0896(02)00069-x (Universidad De Navarra, 2002) can be followed below.

The target of the test is Cyclin-dependent kinase 1/G2/mitotic-specific cyclin-B (Marthasterias glacialis, UniProt P15206+Q9DGD3). Kind of test: Kinase Inhibition Assay. The settings on record: pH 7.2; 30 °C. The procedure:
Kinase activities were assayed in buffers containing substrate, enzyme, and inhibitor at 30 °C in the presence of 15 uM ATP/ [gamma-32P] ATP. 32P incorporation was measured with a scintillation counter. The IC50 is the inhibitor concentration, which inhibits 50% of kinase activity that catalyzes the transfer of the terminal phosphate from 32P labeled ATP to the substrate.

Chain of Cyclin-dependent kinase 1/G2/mitotic-specific cyclin-B (Q9DGD3 whole entry): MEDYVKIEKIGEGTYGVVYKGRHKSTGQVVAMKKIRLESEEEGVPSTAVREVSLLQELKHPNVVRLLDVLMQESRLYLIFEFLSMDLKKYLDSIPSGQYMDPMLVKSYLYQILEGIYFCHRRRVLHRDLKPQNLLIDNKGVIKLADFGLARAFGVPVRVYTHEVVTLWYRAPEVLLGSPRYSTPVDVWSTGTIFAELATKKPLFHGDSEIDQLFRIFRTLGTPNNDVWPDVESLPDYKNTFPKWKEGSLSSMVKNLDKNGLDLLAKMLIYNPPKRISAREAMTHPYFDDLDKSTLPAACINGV
Chain of Cyclin-dependent kinase 1/G2/mitotic-specific cyclin-B (P15206 whole entry): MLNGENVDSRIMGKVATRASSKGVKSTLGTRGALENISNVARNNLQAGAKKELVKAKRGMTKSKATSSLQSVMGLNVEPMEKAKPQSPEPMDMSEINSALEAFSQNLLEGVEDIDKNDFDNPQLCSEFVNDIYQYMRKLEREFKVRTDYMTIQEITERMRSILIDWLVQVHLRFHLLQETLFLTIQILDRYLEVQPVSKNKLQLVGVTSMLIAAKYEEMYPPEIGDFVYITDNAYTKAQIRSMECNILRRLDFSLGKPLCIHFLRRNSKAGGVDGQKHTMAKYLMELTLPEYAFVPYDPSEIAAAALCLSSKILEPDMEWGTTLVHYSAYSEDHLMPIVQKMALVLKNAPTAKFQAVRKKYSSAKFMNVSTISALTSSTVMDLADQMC

One may read the pIC50 as the negative decadic logarithm of the IC50, by convention in mol/L. In the case of `CCN(CC)CCn1nc(N)c2nc3ccccc3nc21` [1-[2-(diethylamino)ethyl]-1H-pyrazolo[3,4-b]quinoxalin-3-amine], the pIC50 is < 5.00.

For the molecule `CN(C)CCn1nc(N)c2nc3ccccc3nc21` [1-[2-(dimethylamino)ethyl]-1H-pyrazolo[3,4-b]quinoxalin-3-amine], the pIC50 is < 5.00.

On to `Cc1cc2nc3c(N)nn(CCCN(C)C)c3nc2cc1C` [1-[3-(dimethylamino)propyl]-6,7-dimethyl-1H-pyrazolo[3,4-b]quinoxalin-3-amine], for which the pIC50 was < 5.00.

Molecule `Nc1n[nH]c2nc3ccccc3nc12` [1H-pyrazolo[3,4-b]quinoxalin-3-amine] showed a pIC50 of 6.22.

`Clc1ccc2nc3[nH]nc(Cl)c3nc2c1` [3,6-Dichloro-1H-pyrazolo[3,4-b]quinoxaline] gave a pIC50 of 4.82. This pIC50 lies 1.40 log units lower than the previous one.

On to `CN(C)CCCn1nc(N)c2nc3ccccc3nc21` [3-Amino-1-(3-dimethylamino-prop-1-yl)-1H-pyrazolo[3,4-b]quinoxaline hydrochloride], for which the pIC50 is < 5.00.

For `CCN(CC)CCn1nc(N)c2nc3cc(C)c(C)cc3nc21` [3-Amino-6,7-dimethyl-1-(2-diethylamino-ethyl)-1H-pyrazolo[3,4-b]quinoxaline], the pIC50 is < 5.00.

The molecule `Cc1cc2nc3[nH]nc(N)c3nc2cc1C` [3-Amino-6,7-dimethyl-1H-pyrazolo[3,4-b]quinoxaline] had a pIC50 of 4.68.

For the molecule `CN(C)CCn1nc(N)c2nc3cc(Cl)ccc3nc21` [3-Amino-6-chloro-1-(2-dimethylamino-ethyl)-1H-pyrazolo[3,4-b]quinoxaline], the pIC50 is < 5.00.

The molecule `Cc1ccc2nc3[nH]nc(N)c3nc2c1` [3-Amino-6-methyl-1H-pyrazolo[3,4-b]quinoxaline] showed a pIC50 of 5.46.

In the case of `Nc1n[nH]c2nc3ccc(C(F)(F)F)cc3nc12` [3-Amino-6-trifluoromethyl-1H-pyrazolo[3,4-b]quinoxaline], the pIC50 is 5.35.

Consider `Clc1n[nH]c2nc3ccccc3nc12` [3-Chloro-1H-pyrazolo[3,4-b]quinoxaline], for which the pIC50 is 4.66.

Regarding `Nc1nn(C(=O)c2ccncc2)c2nc3ccccc3nc12` [3-amino-1-(pyridin-4-yl-carbonyl)-1H-pyrazolo[3,4-b]quinoxaline], the pIC50 is < 5.00.

`CCN(CC)CCn1nc(N)c2nc3cc(Cl)ccc3nc21` [6-chloro-1-[2-(diethylamino)ethyl]-1H-pyrazolo[3,4-b]quinoxalin-3-amine]: the pIC50 was < 5.00.

Turning to `CN(C)CCCn1nc(N)c2nc3cc(Cl)ccc3nc21` [6-chloro-1-[3-(dimethylamino)propyl]-1H-pyrazolo[3,4-b]quinoxalin-3-amine], the pIC50 is < 5.00.

Molecule `Nc1n[nH]c2nc3ccc(Cl)cc3nc12` [6-chloro-1H-pyrazolo[3,4-b]quinoxalin-3-amine] showed a pIC50 of 5.34.

For `COc1ccc2[nH]c3nnc(N)c-3nc2c1` [6-methoxy-1H-pyrazolo[3,4-b]quinoxalin-3-amine], the pIC50 was 5.32.
